A short description of data set [1]: Kinetic solubility assay (CLND), pH 6.8. Format: physicochemical. To be noted: aqueous buffer, kinetic from dmso stock; potassium phosphate buffer pH 6.8, 2% DMSO, 24 hours at ambient temperature.
A further data set addresses IRAK4 (Homo sapiens (Human), UniProt Q9NWZ3). In words: IRAK4 MSD biochemical assay (2-hour 1 mM ATP). To be noted: 0.1 nM IRAK4, 1 mM ATP, 2 hour at room temperature.
Data set [2] in a line: Kpuu assay (in vivo brain-to-plasma unbound partition). To be noted: brain (unbound) versus plasma (unbound); intravenous infusion 4 to 24 h; unbound brain/plasma ratio; read-out: Brain Kpu, u.
A further data set deals with MDR1 (Homo sapiens (Human), UniProt P08183). In words: in vitro. To be noted: MDCK-MDR1.

The results in this text go back to patent US20240116922A1, “IMIDAZO[1,2-A]PYRIDINE DERIVATIVES AS IRAK4 INHIBITORS AND THEIR USE IN THE TREATMENT OF DISEASE” (BIOGEN MA INC., priority 2020, published 2024).

Each structure is given as a SMILES string. Values after ≈ are worked out from the molar mass of the structure shown.

Sequence of MDR1 (P08183 whole entry): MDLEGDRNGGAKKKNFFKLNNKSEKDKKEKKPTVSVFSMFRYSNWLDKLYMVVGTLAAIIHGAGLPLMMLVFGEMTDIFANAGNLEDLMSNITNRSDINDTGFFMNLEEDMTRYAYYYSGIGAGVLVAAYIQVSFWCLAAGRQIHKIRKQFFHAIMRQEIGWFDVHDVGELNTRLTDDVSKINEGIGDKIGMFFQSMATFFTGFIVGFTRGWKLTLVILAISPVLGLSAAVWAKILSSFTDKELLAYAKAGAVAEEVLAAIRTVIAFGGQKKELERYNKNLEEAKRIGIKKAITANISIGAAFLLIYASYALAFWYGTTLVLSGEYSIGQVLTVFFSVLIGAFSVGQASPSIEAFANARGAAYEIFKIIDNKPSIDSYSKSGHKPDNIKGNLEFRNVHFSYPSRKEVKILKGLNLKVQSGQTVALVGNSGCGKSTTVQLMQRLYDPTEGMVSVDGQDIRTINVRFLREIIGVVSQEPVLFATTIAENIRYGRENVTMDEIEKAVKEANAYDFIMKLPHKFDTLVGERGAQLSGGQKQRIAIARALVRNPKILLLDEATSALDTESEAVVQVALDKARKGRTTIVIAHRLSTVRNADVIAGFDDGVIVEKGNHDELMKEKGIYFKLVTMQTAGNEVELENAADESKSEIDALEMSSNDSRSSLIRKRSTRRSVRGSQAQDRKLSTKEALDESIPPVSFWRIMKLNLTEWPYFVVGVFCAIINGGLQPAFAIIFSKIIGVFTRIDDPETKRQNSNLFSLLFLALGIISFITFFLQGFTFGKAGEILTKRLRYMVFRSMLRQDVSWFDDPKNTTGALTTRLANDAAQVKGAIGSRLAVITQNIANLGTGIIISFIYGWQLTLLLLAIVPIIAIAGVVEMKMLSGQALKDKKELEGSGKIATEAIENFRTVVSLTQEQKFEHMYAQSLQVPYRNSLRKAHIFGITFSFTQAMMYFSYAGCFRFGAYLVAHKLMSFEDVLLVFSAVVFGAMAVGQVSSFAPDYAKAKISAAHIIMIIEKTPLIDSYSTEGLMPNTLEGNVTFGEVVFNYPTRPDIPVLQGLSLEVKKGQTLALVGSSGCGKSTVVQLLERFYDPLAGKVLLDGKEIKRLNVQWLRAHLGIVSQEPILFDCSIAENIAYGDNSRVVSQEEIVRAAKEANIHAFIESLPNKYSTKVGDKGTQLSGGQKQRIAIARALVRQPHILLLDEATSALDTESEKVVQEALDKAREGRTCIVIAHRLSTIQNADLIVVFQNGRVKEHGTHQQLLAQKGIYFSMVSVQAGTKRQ
Sequence of IRAK4 (Q9NWZ3 whole entry, the tested form may be a part): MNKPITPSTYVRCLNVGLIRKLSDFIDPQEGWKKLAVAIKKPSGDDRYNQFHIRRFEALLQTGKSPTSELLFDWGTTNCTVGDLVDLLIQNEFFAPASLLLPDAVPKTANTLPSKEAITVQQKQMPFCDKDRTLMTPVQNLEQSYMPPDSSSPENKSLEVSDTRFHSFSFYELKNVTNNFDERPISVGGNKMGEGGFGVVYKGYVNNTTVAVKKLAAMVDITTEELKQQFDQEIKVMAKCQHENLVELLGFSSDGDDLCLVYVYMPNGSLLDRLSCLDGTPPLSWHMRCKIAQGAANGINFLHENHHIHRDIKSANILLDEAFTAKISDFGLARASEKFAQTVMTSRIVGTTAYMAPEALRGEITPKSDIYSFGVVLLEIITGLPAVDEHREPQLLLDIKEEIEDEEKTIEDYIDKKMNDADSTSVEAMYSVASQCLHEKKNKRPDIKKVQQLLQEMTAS

Take `CC(C)Oc1cc2nc([C@@]34CC[C@@](C)(C3)OC4)cn2cc1C(=O)Nc1ccn(C)n1` (single isomer, unassigned) [Comparator 3C, reference compound]: the kinetic solubility at 24 h in data set [1] is 28.5 µg/mL (≈ 69.6 µM). At IRAK4, this molecule displayed a half-maximal inhibitory concentration (IC50) of 2.3 nM. For the same molecule, the Kpuu (unbound brain-to-plasma partition coefficient) in data set [2] is 0.3. Also, on MDR1, the efflux ratio at 120 min, 1 μM was found to be 6.3.

For the molecule `CC(C)Oc1cc2nc([C@@]34CC[C@@](C)(C3)OC4)cn2cc1C(=O)Nc1cccn(C)c1=O` (single isomer, unassigned) [Comparator 3D, reference compound], the solubility (kinetic) at 24 h in data set [1] came out at 49.3 µg/mL (≈ 113 µM). Further, the Kpuu (unbound brain-to-plasma partition coefficient) in data set [2] was 1.1. Further, the efflux ratio at 120 min, 1 μM on MDR1 turned out to be 3.1.

As to `CC(C)Oc1nc2nc([C@@]34CC[C@@](C)(C3)OC4)cn2cc1C(=O)Nc1cccc(C(F)F)n1` (single isomer, unassigned) [Comparator 4A, reference compound], in data set [1], the solubility (kinetic) at 24 h stood at 2 µg/mL (≈ 4.37 µM). For the same molecule, in data set [2], the Kpuu (unbound brain-to-plasma partition coefficient) came to 0.4. In addition, the efflux ratio at 120 min, 1 μM on MDR1 was 0.7.

In the case of `CC(C)Oc1cc2nc([C@@]34CC[C@@](C)(C3)OC4)cn2cc1C(=O)Nc1cccn(C2CC2)c1=O` (single isomer, unassigned) [Example 4], the kinetic solubility at 24 h in data set [1] came to 57.4 µg/mL (≈ 124 µM). This molecule yielded a 50% inhibitory concentration (IC50) against IRAK4 of 0.2 nM. The Kpuu (unbound brain-to-plasma partition coefficient) in data set [2] is 0.26. In addition, the efflux ratio at 120 min, 1 μM at MDR1 came out at 7.1.

For `CC(C)Oc1cc2nc([C@]34CC[C@](C)(C3)OC4)cn2cc1C(=O)Nc1cccn(C2CC2)c1=O` (single isomer, unassigned) [Example 5], the kinetic solubility at 24 h in data set [1] was 32.9 µg/mL (≈ 71.1 µM). Also, half-maximal inhibition against IRAK4 (IC50) required 0.1 nM. For the same molecule, the Kpuu (unbound brain-to-plasma partition coefficient) in data set [2] came out at 0.38. In addition, the efflux ratio at 120 min, 1 μM on MDR1 was determined as 6.1.

The molecule `CC(C)Oc1cc2nc([C@@]34CC[C@@](CF)(C3)OC4)cn2cc1C(=O)Nc1cccn(C2CC2)c1=O` (single isomer, unassigned) [Example 7] displayed a kinetic solubility at 24 h in data set [1] of 79.2 µg/mL (≈ 165 µM). Also, inhibition on IRAK4 was half-maximal at 0.3 nM (IC50). Moreover, in data set [2], the Kpuu (unbound brain-to-plasma partition coefficient) worked out at 0.66. Moreover, the efflux ratio at 120 min, 1 μM at MDR1 was determined as 5.

`CC(C)Oc1cc2nc([C@]34CC[C@](CF)(C3)OC4)cn2cc1C(=O)Nc1cccn(C2CC2)c1=O` (single isomer, unassigned) [Example 8] returned a solubility (kinetic) at 24 h in data set [1] of 75.9 µg/mL (≈ 158 µM). On IRAK4, this molecule showed an IC50 of 0.3 nM. The Kpuu (unbound brain-to-plasma partition coefficient) in data set [2] was 0.49. Further, the efflux ratio at 120 min, 1 μM at MDR1 came out at 5.4.

With `CC[C@H](C)Oc1cc2nc(C34COC(CF)(C3)C4)cn2cc1C(=O)Nc1cccn(C2CC2)c1=O` (single isomer, unassigned) [Example 15], the solubility (kinetic) at 24 h in data set [1] was determined as 78.6 µg/mL (≈ 164 µM). This molecule also displayed an IC50 on IRAK4 of 0.4 nM. Besides, the Kpuu (unbound brain-to-plasma partition coefficient) in data set [2] is 0.41. For the same molecule, the efflux ratio at 120 min, 1 μM at MDR1 was determined as 8.1.

Regarding `C[C@@]12CC[C@@](c3cn4cc(C(=O)Nc5cccn(C6CC6)c5=O)c(OC5CCC5)cc4n3)(CO1)C2` (single isomer, unassigned) [Example 25], in data set [1], the kinetic solubility at 24 h was determined as 66.7 µg/mL (≈ 141 µM). Further, at IRAK4, it took 0.3 nM to reach half-maximal inhibition (IC50). The Kpuu (unbound brain-to-plasma partition coefficient) in data set [2] amounted to 0.36. The efflux ratio at 120 min, 1 μM at MDR1 turned out to be 3.2.

The molecule `CC(C)Oc1nc2nc([C@@]34CC[C@@](CF)(C3)OC4)cn2cc1C(=O)Nc1cccn(C2CC2)c1=O` (single isomer, unassigned) [Example 46] yielded a kinetic solubility at 24 h in data set [1] of 9 µg/mL (≈ 18.7 µM). Further, the Kpuu (unbound brain-to-plasma partition coefficient) in data set [2] worked out at 1.81.

Take `CC[C@@H](C)Oc1nc2nc(C34COC(C)(C3)C4)cn2cc1C(=O)Nc1cccn(C2CC2)c1=O` (single isomer, unassigned) [Example 63]: the kinetic solubility at 24 h in data set [1] was found to be 67.1 µg/mL (≈ 145 µM). For the same molecule, it took 0.8 nM to reach half-maximal inhibition against IRAK4 (IC50). For the same molecule, the Kpuu (unbound brain-to-plasma partition coefficient) in data set [2] is 0.48. Also, the efflux ratio at 120 min, 1 μM at MDR1 turned out to be 5.5.

In data set [1], `CC(C)Oc1c(C(=O)Nc2cccn(C3CC3)c2=O)cn2cc([C@@]34CC[C@@](C)(C3)OC4)nc2c1F` (single isomer, unassigned) [Example 67] returned a kinetic solubility at 24 h of 48.8 µg/mL (≈ 102 µM). On IRAK4, this molecule displayed an IC50 of 1.3 nM. Also, in data set [2], the Kpuu (unbound brain-to-plasma partition coefficient) came out at 0.96. The efflux ratio at 120 min, 1 μM on MDR1 was 2.8.

`CC(C)Oc1nc2nc(C34COC(C)(C3)C4)cn2cc1C(=O)Nc1cccn([C@H]2CC2(C)C)c1=O` (single isomer, unassigned) [Example 79] showed a kinetic solubility at 24 h in data set [1] of 45.7 µg/mL (≈ 95.7 µM). On IRAK4, this molecule gave an IC50 of 0.7 nM. Besides, in data set [2], the Kpuu (unbound brain-to-plasma partition coefficient) stood at 0.89. The efflux ratio at 120 min, 1 μM on MDR1 amounted to 2.9.

`CC(C)Oc1nc2nc([C@@H]3CCCOC3)cn2cc1C(=O)Nc1cccn(C2CC2)c1=O` (single isomer, unassigned) [Example 108] came in with a 50% inhibitory concentration (IC50) on IRAK4 of 0.1 nM. In data set [2], the Kpuu (unbound brain-to-plasma partition coefficient) was determined as 0.52. Further, the efflux ratio at 120 min, 1 μM on MDR1 came to 4.

The molecule `CC(C)Oc1nc2nc(C[C@@H]3CCOC3)cn2cc1C(=O)Nc1cccn(C2CC2)c1=O` (single isomer, unassigned) [Example 109] returned a solubility (kinetic) at 24 h in data set [1] of 50.2 µg/mL (≈ 115 µM). The molecule further registered an IC50 at IRAK4 of 0.5 nM. Also, in data set [2], the Kpuu (unbound brain-to-plasma partition coefficient) was 0.25. Further, at MDR1, the efflux ratio at 120 min, 1 μM was 7.1.

On to `COC[C@]12CC[C@](c3cn4cc(C(=O)Nc5cccn([C@H]6C[C@H]6F)c5=O)c(OC(C)C)nc4n3)(CO1)C2` (single isomer, unassigned) [Example 130], for which the kinetic solubility at 24 h in data set [1] was determined as 63.6 µg/mL (≈ 124 µM). For the same molecule, the Kpuu (unbound brain-to-plasma partition coefficient) in data set [2] turned out to be 0.08.

`COC[C@@]12CC[C@@](c3cn4cc(C(=O)Nc5cccn([C@H]6C[C@H]6F)c5=O)c(OC(C)C)nc4n3)(CO1)C2` (single isomer, unassigned) [Example 132] gave a kinetic solubility at 24 h in data set [1] of 70.5 µg/mL (≈ 138 µM). The Kpuu (unbound brain-to-plasma partition coefficient) in data set [2] was 0.14.

In data set [1], `CC(C)Oc1cc2nc(C34COC(C)(C3)C4)cn2cc1C(=O)Nc1cccn([C@H]2C[C@@H]2F)c1=O` (single isomer, unassigned) [Example 155] came in with a kinetic solubility at 24 h of 35.8 µg/mL (≈ 76.7 µM). Moreover, in data set [2], the Kpuu (unbound brain-to-plasma partition coefficient) was 0.36.

In data set [1], `CC(C)Oc1cc2nc(C34COC(C)(C3)C4)cn2cc1C(=O)Nc1cccc(C(F)F)n1` [Comparator 1A, N-(6-(difluoromethyl)pyridin-2-yl)-7-isopropoxy-2-(1-methyl-2-oxabicyclo[2.1.1]hexan-4-yl)imidazo[1,2-a]pyridine-6-carboxamide, reference compound] registered a solubility (kinetic) at 24 h of 2.1 µg/mL (≈ 4.75 µM). Also, the Kpuu (unbound brain-to-plasma partition coefficient) in data set [2] was 0.4. The efflux ratio at 120 min, 1 μM on MDR1 worked out at 0.9.

In turn, `CC(C)Oc1nc2nc(C34COC(C)(C3)C4)cn2cc1C(=O)Nc1cccc(C(F)F)n1` [Comparator 2A, N-(6-(difluoromethyl)pyridin-2-yl)-7-isopropoxy-2-(1-methyl-2-oxabicyclo[2.1.1]hexan-4-yl)imidazo[1,2-a]pyrimidine-6-carboxamide, reference compound] had a kinetic solubility at 24 h in data set [1] of 2.4 µg/mL (≈ 5.41 µM). Besides, the Kpuu (unbound brain-to-plasma partition coefficient) in data set [2] turned out to be 0.4. The efflux ratio at 120 min, 1 μM on MDR1 turned out to be 1.1.

As for `CC(C)Oc1cc2nc(C34CCC(C)(CC3)OC4)cn2cc1C(=O)Nc1ccn(C)n1` [Comparator 5C, 7-isopropoxy-N-(1-methyl-1H-pyrazol-3-yl)-2-(1-methyl-2-oxabicyclo[2.2.2]octan-4-yl)imidazo[1,2-a]pyridine-6-carboxamide, reference compound], the solubility (kinetic) at 24 h in data set [1] is 39.6 µg/mL (≈ 93.5 µM). Besides, the Kpuu (unbound brain-to-plasma partition coefficient) in data set [2] is 0.4. Besides, at MDR1, the efflux ratio at 120 min, 1 μM came to 2.2.

`CC(C)Oc1cc2nc(C34CCC(C)(CC3)OC4)cn2cc1C(=O)Nc1cccn(C)c1=O` [Comparator 5D, 7-isopropoxy-N-(1-methyl-2-oxo-1,2-dihydropyridin-3-yl)-2-(1-methyl-2-oxabicyclo[2.2.2]octan-4-yl)imidazo[1,2-a]pyridine-6-carboxamide, reference compound]: the kinetic solubility at 24 h in data set [1] was 45.6 µg/mL (≈ 101 µM). Besides, in data set [2], the Kpuu (unbound brain-to-plasma partition coefficient) is 0.6. Further, the efflux ratio at 120 min, 1 μM at MDR1 was 2.

The molecule `CC(C)Oc1nc2nc(C34CCC(C)(CC3)OC4)cn2cc1C(=O)Nc1cccn(C)c1=O` [Comparator 6D, 7-isopropoxy-N-(-methyl-2-oxo-1,2-dihydropyridin-3-yl)-2-(1-methyl-2-oxabicyclo[2.2.2]octan-4-yl)imidazo[1,2-a]pyrimidine-6-carboxamide, reference compound] yielded a kinetic solubility at 24 h in data set [1] of 11.2 µg/mL (≈ 24.8 µM). Also, in data set [2], the Kpuu (unbound brain-to-plasma partition coefficient) was 0.4. The efflux ratio at 120 min, 1 μM on MDR1 was found to be 3.

For the molecule `CC(C)Oc1nc2nc(C34COC(CF)(C3)C4)cn2cc1C(=O)Nc1cccn(C2CC2)c1=O` [Example 10, N-(1-cyclopropyl-2-oxo-1,2-dihydropyridin-3-yl)-2-(1-(fluoromethyl)-2-oxabicyclo[2.1.1]hexan-4-yl)-7-isopropoxyimidazo[1,2-a]pyrimidine-6-carboxamide], the kinetic solubility at 24 h in data set [1] is 79.3 µg/mL (≈ 170 µM). In data set [2], the Kpuu (unbound brain-to-plasma partition coefficient) is 0.22.

Take `O=C(Nc1cccn(C2CC2)c1=O)c1cn2cc(C34COC(CF)(C3)C4)nc2nc1OC1CCC1` [Example 33, 7-cyclobutoxy-N-(1-cyclopropyl-2-oxo-1,2-dihydropyridin-3-yl)-2-(1-(fluoromethyl)-2-oxabicyclo[2.1.1]hexan-4-yl)imidazo[1,2-a]pyrimidine-6-carboxamide]: the solubility (kinetic) at 24 h in data set [1] was 10.1 µg/mL (≈ 21.1 µM). Also, in data set [2], the Kpuu (unbound brain-to-plasma partition coefficient) is 0.45.

Consider `CC[C@H](C)Oc1nc2nc([C@]34CC[C@](C)(C3)OC4)cn2cc1C(=O)Nc1cccn(C2CC2)c1=O` [Example 50, 7-((S)-sec-butoxy)-N-(1-cyclopropyl-2-oxo-1,2-dihydropyridin-3-yl)-2-((1R,4S)-1-methyl-2-oxabicyclo[2.2.1]heptan-4-yl)imidazo[1,2-a]pyrimidine-6-carboxamide], for which inhibition at IRAK4 was half-maximal at 0.5 nM (IC50). For the same molecule, the Kpuu (unbound brain-to-plasma partition coefficient) in data set [2] amounted to 0.66. Besides, the efflux ratio at 120 min, 1 μM on MDR1 was 2.9.

In general, kinetic solubility refers to the concentration staying in solution when a stock, usually in DMSO, is diluted into the medium. The term IC50 denotes the midpoint of a concentration-inhibition curve. A lower IC50 goes with greater potency in that assay. One may read the efflux ratio as a quotient of directional permeabilities that is used to spot active efflux.
